Results from patent US20250163002A1, “FUSED QUINONOXIME IMIDAZOLE, ONIUM DERIVATIVES THEREOF, PREPARATION AND USE THEREOF” (SHANGHAI JIAO TONG UNIVERSITY, priority 2022, published 2025).

Experiments:
Adenovirus = experiment: Antiviral activity, plaque test in 293A cells; format: cell-based; conditions: adenovirus in 293A cells, observation by day
Protocol: Experimental method: 4.59 mg of the compound 125 were weighed and put to a 15 mL centrifugal tube with the addition of 10 mL of sterile water, and dissolved via vortex oscillation until there was no obvious yellow particle, then subpackaged and stored at −20° C., 200 μL/piece (concentration: 1 mM); 2.79 mg Cidofovir (molecular weight: 279) were weighed and added to the 15 mL centrifugal tube, dissolved with the addition of 10 mL sterile water, then subpackaged and stored at −20° C., 200 μL/piece (concentration: 1 mM).
Plaque test: • 1. 293A cells were paved into a 24-well plate with 150,000 cells per well, and cultured at 37° C. for 12-24 h, then used for test after growing to 90%. • 2. 2% low-melting point agarose gel was melted and put to a 56° C. water bath kettle for further use. • 3. Adenovirus having a titer of 10^9 TCID^50/mL was diluted by 10^5 folds; medium in the 24-well plate was removed, and 200 μL of adenoviral diluent was added per well and incubated in a 37° C. 5% CO2 incubator, shaken once every 30 min, and incubated for 1 h in total. • 4. The drug compound 125 to be tested and Cidofovir were double diluted with 2×MEM (16 μL compound 125 was added to 8 mL of 2×MEM, oscillated and mixed well, then 4 mL mixed solution was taken and added to fresh 4 mL of 2×MEM and mixed well, and 5 dilutions were conducted, being 2 μM, 1 μM, 500 nM, 250 nM, and 125 nM, respectively; the maximum concentration of the compound 125 was 1 μM. Similarly, 400 μL Cidofovir was added to 7.6 mL of 2×MEM, oscillated and mixed well, then 4 mL mixed solution was taken and added to fresh 4 mL of 2×MEM and mixed well, and 5 dilutions were conducted, being 50 μM, 25 μM, 12.5 μM, 6.25 μM, and 3.125 μM, respectively); the diluted solution was put at 37° C. for further use. • 4. The viral solution was discarded, and agarose gel preheated at 56° C. was added to 2×MEM by the same volume and mixed well, and then 2 mL of mixed solution was added per well, and incubated at room temperature for 30 min (gel). • 5. […]

leukemia cell CCRF-CEM = experiment: In vitro proliferation inhibition, CCRF-CEM; format: cell-based; conditions: unit inferred
Protocol: (§1) Test method: pancreatic cancer cells CFPAC-1 were cultured in a Dalbeco-improved Eagle medium with the addition of 10% FBS and 5% double-antibody. CFPAC-1 cancer cells were inoculated into a 96-well plate for incubation for 24 h; in the following day, test compounds having various concentrations of (100, 20, 10, 1, 0.1, 0.01, and 0.001 μM) and positive control agents were added per well; corresponding volume of fresh medium was added to blank control. After addition for 24 h or 48 h, cell proliferation was evaluated by chromogenic reaction of MTT formazan.
(§2) In addition, compounds (I), (II), (III), and (IV) of the present invention have good inhibition activity against the proliferation of other cancer cells, including non-small cell lung cancer cell (H460, H1299), liver tumor cell (HepG2), rectal cancer cell (HT29), leukemia cell (CCRF-CEM), prostate cancer cell (PC-3), ovarian carcinoma cell (SKOV-3), melanoma cell (A375), myeloma cell (RPMI-8226), esophageal carcinoma cell (TE-1), pancreatic cancer cell (CFPAC-1, PANC-1, SW1990, ASPC-1, and BXPC-3), bladder cancer cell (5637), and gastric cancer cell (KATO-III).

A549 = experiment: In vitro inhibition test for cancer cell proliferation (MTT), A549; format: cell-based; conditions: unit inferred
liver tumor cell HepG2 = experiment: In vitro proliferation inhibition, HepG2; format: cell-based; conditions: unit inferred
Protocol: as §1, §2

[1] = system: ovarian carcinoma cell SKOV-3; experiment: In vitro proliferation inhibition, SKOV-3; format: cell-based; conditions: unit inferred
Protocol: as §1, §2

rectal cancer cell HT29 = experiment: In vitro proliferation inhibition, HT29; format: cell-based; conditions: unit inferred
Protocol: as §1, §2

melanoma cell A375 = experiment: In vitro proliferation inhibition, A375; format: cell-based; conditions: unit inferred
Protocol: as §1, §2

L929 = experiment: In vitro cell proliferation inhibition test (MTT), L929; format: cell-based; conditions: unit inferred
[2] = system: gastric cancer cell KATO-III; experiment: In vitro proliferation inhibition, KATO-III; format: cell-based; conditions: unit inferred
Protocol: as §1, §2

[3] = system: pancreatic cancer cells CFPAC-1; experiment: In vitro proliferation inhibition, CFPAC-1; format: cell-based; conditions: unit inferred
Protocol: as §1, §2

[4] = system: esophageal carcinoma cell TE-1; experiment: In vitro proliferation inhibition, TE-1; format: cell-based; conditions: unit inferred
Protocol: as §1, §2

[5] = system: pancreatic cancer cell BXPC-3; experiment: In vitro proliferation inhibition, BXPC-3; format: cell-based; conditions: unit inferred
Protocol: as §1, §2

[6] = system: CFPAC-1 pancreatic cancer cells; experiment: In vivo inhibition test of cancer cell proliferation, CFPAC-1 transplant; set-up: species or system Balb/c naked mouse; conditions: 7 mg/kg, once every other three days, 7 times; gross tumor volume
Protocol: Test method: 3×10^7 CFPAC-1 pancreatic cancer cells were transplanted to subcutaneous tissues of armpit of a Balb/c naked mouse; administration was conducted when the tumor grew to 50-100 mm^3, 100-200 mm^3, and greater than 200 mm^3; the mouse was administered once every other three days, 7 times in total, and 7 mg/kg each time. Normal saline was injected in the control group. Tumor length and diameter were measured by calipers and weight of the moue was weighed until the next day of the final administration. Gross tumor volume was calculated by the following equation:
gross tumor volume (mm^3)=½×[short diameter (mm)]^2×long diameter (mm)

myeloma cell RPMI-8226 = experiment: In vitro proliferation inhibition, RPMI-8226; format: cell-based; conditions: unit inferred
Protocol: as §1, §2

HeLa = experiment: In vitro inhibition test for cancer cell proliferation (MTT), HeLa; format: cell-based; conditions: 24 h or 48 h after addition, unit inferred
MCF-7 = experiment: In vitro inhibition test for cancer cell proliferation (MTT), MCF-7; format: cell-based; conditions: unit inferred
[7] = system: prostate cancer cell PC-3; experiment: In vitro proliferation inhibition, PC-3; format: cell-based; conditions: unit inferred
Protocol: as §1, §2

bladder cancer cell 5637 = experiment: In vitro proliferation inhibition, 5637; format: cell-based; conditions: unit inferred
Protocol: as §1, §2

[8] = system: pancreatic cancer cell SW1990; experiment: In vitro proliferation inhibition, SW1990; format: cell-based; conditions: unit inferred
Protocol: as §1, §2

[9] = system: pancreatic cancer cell ASPC-1; experiment: In vitro proliferation inhibition, ASPC-1; format: cell-based; conditions: unit inferred
Protocol: as §1, §2

[10] = system: non-small cell lung cancer cell H1299; experiment: In vitro proliferation inhibition, H1299; format: cell-based; conditions: unit inferred
Protocol: as §1, §2

[11] = system: pancreatic cancer cell PANC-1; experiment: In vitro proliferation inhibition, PANC-1; format: cell-based; conditions: unit inferred
Protocol: as §1, §2

[12] = system: non-small cell lung cancer cell H460; experiment: In vitro proliferation inhibition, H460; format: cell-based; conditions: unit inferred
Protocol: as §1, §2

[13] = Homo sapiens, A549, 24 h or 48 h after addition
[14] = Mus musculus, L929, 24 h or 48 h after addition
[15] = Homo sapiens, MCF7, 24 h or 48 h after addition

Compound | non-CPE blank plaques observed (Adenovirus) | IC50 (leukemia cell CCRF-CEM) [nM] | IC50 (A549; 24 h or 48 h after addition) [nM] | IC50 (liver tumor cell HepG2) [nM] | IC50 [1] [nM] | IC50 (rectal cancer cell HT29) [nM] | IC50 (melanoma cell A375) [nM] | IC50 (L929; 24 h or 48 h after addition) [nM] | IC50 [2] [nM] | IC50 [3] [nM] | IC50 [4] [nM] | IC50 [5] [nM] | proliferation inhibition activity / inhibition ratio [6] [%] | IC50 (myeloma cell RPMI-8226) [nM] | IC50 (HeLa) [nM] | IC50 (MCF-7; 24 h or 48 h after addition) [nM] | IC50 [7] [nM] | IC50 (bladder cancer cell 5637) [nM] | IC50 [8] [nM] | IC50 [9] [nM] | further results
Nc1ccn(C[C@@H](CO)OCP(=O)(O)O)c(=O)n1 [Cidofovir, reference compound] | 4 days later, lots of blank plaques formed by non-CPE could be observed | – | – | – | – | – | – | – | – | – | – | – | – | – | – | – | – | – | – | – | –
CON=C1c2ccccc2C(=O)c2c1[n+](C)cn2C.[I-] [Compound 123, (E) and (Z)-4-(methoxylimino)-1,3-dimethyl-9-oxo-4,9-dihydro-1H-naphthol[2,3-d]imidazole-3-iodide] | – | 120 | 7 | 10 | 90 | 6700 | 4650 | 3800 | 10 | 7 | 70 | 4 | 100 | 90900 | 23000 | 1800 | 13500 | 50 | 8 | 7 | IC50 [10]: 430 nM; IC50 [11]: 760 nM; IC50 [12]: 220 nM
CCON=C1c2ccccc2C(=O)c2c1[n+](C)cn2C.[I-] [Compound 124, (E) and (Z)-4-(ethoxylimino)-1,3-dimethyl-9-oxo-4,9-dihydro-1H-naphthol[2,3-d]imidazole-3-iodide] | – | 220 | 9 | 20 | 100 | 7900 | 5650 | 4600 | 20 | 9 | 80 | 6 | 100 | 99200 | 11300 | 3300 | 23100 | 60 | 9 | 8 | IC50 [10]: 450 nM; IC50 [11]: 890 nM; IC50 [12]: 340 nM
CC(C)ON=C1c2ccccc2C(=O)c2c1[n+](C)cn2C.[I-] [Compound 127, (E) and (Z)-4-(isopropoxyimino)-1,3-dimethyl-9-oxo-4,9-dihydro-1H-naphthol[2,3-d]imidazole-3-iodide] | 5 days later, non-CPE blank plaque also appeared in the low concentration group | – | 90 | – | – | – | – | 29600 | – | – | – | – | – | – | 25100 | 7900 | – | – | – | – | –
Cn1c[n+](C)c2c1C(=O)c1ccccc1/C2=N\OCCOCc1ccccc1 [Compound 145, (E)-4-((2-(benzyloxy)ethoxy)imino)-1,3-dimethyl-9-oxo-4,9-dihydro-1H-naphthol[2,3-d]imidazole-3-iodide] | – | – | – | – | – | – | – | – | – | – | – | – | – | – | – | – | – | – | – | – | IC50 (A549; [13]): 40 nM; IC50 (L929; [14]): 45100 nM; IC50 (HeLa; Homo sapiens, HeLa): 34200 nM; IC50 (MCF-7; [15]): 34800 nM
COCCOCCO/N=C1\c2ccccc2C(=O)c2c1[n+](C)cn2C [Compound 146, (E)-4-((2-(2-methoxyethoxy)ethoxy)imino)-1,3-dimethyl-9-oxo-4,9-dihydro-1H-naphthol[2,3-d]imidazole-3-iodide] | – | – | – | – | – | – | – | – | – | – | – | – | – | – | – | – | – | – | – | – | IC50 (A549; [13]): 9 nM; IC50 (L929; [14]): 24600 nM; IC50 (HeLa; Homo sapiens, HeLa): 23000 nM; IC50 (MCF-7; [15]): 32800 nM
